Results taken from PubChem BioAssay (NCI).
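Tested at 5 concentrations; 48 h exposure; 96-well plates; endpoints linearly interpolated, else capped at highest concentration. Definition used: TGI = concentration required for complete inhibition of growth.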

Columns and labels:
Experiment in all cases: DTP human tumour cell line panel, 48 h
[1] = test system: CCRF-CEM leukemia
[2] = test system: DU-145 prostate
[3] = test system: HOP-62 NSCLC
[4] = test system: HOP-92 NSCLC
[5] = test system: K-562 leukemia
[6] = test system: MCF7 breast
[7] = test system: NCI-H23 lung
[8] = test system: SF-295 CNS
[9] = test system: SK-MEL-2 melanoma
[10] = test system: UO-31 renal

| SMILES | TGI [1] [µM] | TGI [2] [µM] | TGI [3] [µM] | TGI [4] [µM] | TGI [5] [µM] | TGI [6] [µM] | TGI [7] [µM] | TGI [8] [µM] | TGI [9] [µM] | TGI [10] [µM] |
| --- | --- | --- | --- | --- | --- | --- | --- | --- | --- | --- |
| NCCCC[C@H](N)C(=O)Nc1ccc(-c2nc3ccccc3s2)cc1Cl | 14.7 | 18 | 31.7 | 60 | > 25 | 9.01 | > 37.6 | 10.2 | 32.7 | 18.3 |
| CC1(C)CC[C@]2(C(=O)O)[C@H](O)C[C@]3(C)C(=CC[C@@H]4[C@@]5(C)CC[C@H](OC6OC(C(=O)O)C(O)C(O)C6O)C(C)(C)[C@@H]5CC[C@]43C)[C@@H]2C1 (stereo not given in full) | > 100 | > 100 | > 100 | 39.2 | > 100 | > 100 | > 100 | > 100 | > 100 | 32 |
| C=CCC(CNC(=O)OCc1ccccc1)OC(=O)OCc1ccccc1 (stereo not given) | > 100 | > 100 | > 100 | > 100 | > 100 | > 100 | > 100 | > 100 | > 100 | > 100 |
| Cc1cc(O)c(C(C)C)cc1N=Cc1ccccc1O | 0.0897 | 17.4 | 26.1 | 1.82 | > 22.3 | 78.9 | 37.9 | 26.6 | 25.4 | 33.7 |
| N=C(c1cccs1)C1(N2CCCCC2)CCCCC1 | 36.2 | 30.4 | 47.8 | 37.5 | 32 | 30.5 | 43.5 | 39.7 | 31.3 | 30.5 |
| CC(=O)OCC1OC(N2C(S)=C(C#N)C(c3ccco3)C(C(C)=O)=C2c2ccccc2)C(OC(C)=O)C(OC(C)=O)C1OC(C)=O (stereo not given) | > 100 | > 100 | 45.1 | 95.2 | > 100 | > 100 | > 100 | 94 | > 100 | 91.4 |
| CCOP(=O)(OCC)C(C)(C)OC(=O)NC#N | > 100 | > 100 | > 100 | > 100 | > 100 | > 100 | > 100 | > 100 | > 100 | > 100 |
| CCCCCCCCCCCCCCCCP(=O)([O-])OCC[N+](C)(C)C | 24.7 | 28.3 | 31 | 29 | 35.7 | 35.3 | 40 | 25.8 | 31.5 | 28.2 |
| COc1cccc(-c2cc(=O)c3cc(Cl)cnc3[nH]2)c1 | > 100 | > 36.4 | 9.84 | 63.9 | > 100 | > 78.8 | 8.3 | 13 | 98.2 | > 62 |
| C=CCN1CCC2(CC1)NC(=O)c1ccccc1O2 | > 100 | > 100 | > 100 | > 100 | > 100 | > 100 | > 100 | > 100 | > 100 | > 100 |
| CCOP(=O)(OCC)C(Nc1ccc(F)cc1)c1ccccc1 (stereo not given) | > 100 | > 100 | > 100 | > 100 | > 100 | > 100 | > 100 | > 100 | > 100 | > 100 |
| O=C1OC(=O)C2C1C(c1ccccc1[N+](=O)[O-])C=C(c1ccco1)N2c1ccncc1 (stereo not given) | 17 | 19.7 | 38.2 | 15.8 | 5.33 | 6.73 | 26.2 | 24.5 | 19.8 | 15.3 |
| CN(C)CCNc1nc2c(no[n+]2[O-])c2ccccc12 | > 100 | > 100 | 34.9 | 45.1 | 87.7 | > 100 | > 100 | 81.9 | 40.4 | 49.1 |
| CN(C)c1ccc(/C=c2/c3cc([N+](=O)[O-])ccc3n3c2cc(-c2ccccc2)[n+]3C)cc1 | 5.57 | 6.68 | 10.1 | 3.16 | 7.42 | 8.07 | > 24.2 | 7.51 | 1.68 | 23 |
| Nc1ccc(-c2nc3ccccc3s2)cc1Br | > 100 | > 100 | > 68.3 | > 100 | > 100 | > 100 | > 100 | > 100 | > 100 | > 100 |
